Earlier results, collected in patent US6656915B1, “Inhibiting T-cell proliferation” (Biocryst Pharmaceuticals, Inc., priority 1999, dated 2003).
Where two headings read alike, the source gives them in different places.

Legend:
[1] = test system: peripheral blood lymphocytes; settings: rats
[2] = test system: peripheral blood lymphocytes; settings: dogs
[3] = test system: T-cells; settings: rats; given with 2′-deoxyguanosine
[4] = test system: T-cells; settings: humans; PNP inhibitor without exogenous 2′-deoxyguanosine
[5] = molecular target: PNP (Homo sapiens, UniProt P00491); settings: humans; indicating effective inhibition of PNP
[6] = upon being administered to a host, alone
[7] = test system: human T-cells (CCRF-CEM and Molt-4 cells); settings: given with 2′-deoxyguanosine; CCRF-CEM and Molt-4 cells in cultures
[8] = 2′-deoxyguanosine alone, without PNP inhibition

PNP, sequence (P00491 whole entry): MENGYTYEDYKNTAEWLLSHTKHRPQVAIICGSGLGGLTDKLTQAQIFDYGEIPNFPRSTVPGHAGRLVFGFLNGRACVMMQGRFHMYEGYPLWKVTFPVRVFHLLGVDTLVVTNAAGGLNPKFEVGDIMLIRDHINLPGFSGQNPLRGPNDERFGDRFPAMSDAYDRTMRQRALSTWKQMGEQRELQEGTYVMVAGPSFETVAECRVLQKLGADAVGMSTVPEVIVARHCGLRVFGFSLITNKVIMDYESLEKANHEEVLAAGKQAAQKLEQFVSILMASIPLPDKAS

SMILES: Nc1nc2c(nc(N)n2[C@@H]2O[C@H](CO)[C@@H](O)[C@H]2O)c(=O)[nH]1 [8-Aminoguanosine, reference compound]
- peripheral blood lymphocytes ([1]; given with 2′-deoxyguanosine): profound fall
- peripheral blood lymphocytes ([2]; given with 2′-deoxyguanosine): profound fall
- levels of 2′-deoxyguanosine triphosphate (dGTP) in T-cells [3]: increased levels

SMILES: Nc1nc2c(Cc3cccnc3)c[nH]c2c(=O)[nH]1 [9-(3-Pyridylmethyl)-9-deazaguanine]
- T-cell counts [4]: did not reduce T-cell counts
- plasma inosine levels [5]: increases plasma inosine levels

SMILES: Nc1nc2c(ncn2[C@H]2C[C@H](O)[C@@H](CO)O2)c(=O)[nH]1 [2′-deoxyguanosine]
- cell counts (lymphopenia) [1, 8]: did not significantly decrease cell counts
- cell counts (lymphopenia) [2, 8]: did not significantly decrease cell counts
- degradation of exogenous 2′-deoxyguanosine [6]: rapidly degrades

SMILES: Nc1nc2nc(N)[nH]c2c(=O)[nH]1 [8-Aminoguanine]
- proliferation of human T-cells [7]: inhibits the proliferation
